Reference: patent US20250134907A1, “FUSED DIAZEPINES AS AGONISTS OF THE INSULIN-LIKE 3 (INSL3) PEPTIDE RECEPTOR RXFP2 AND METHODS OF USE THEREOF” (The United States of America,as represented by the …, priority 2022, published 2025)

How the values were obtained:
RXFP2 = molecular target: T1, RXFP2 (Homo sapiens, UniProt Q8WXD0); test: HTRF cAMP assay in HEK293T cells stably expressing RXFP2 (HEK-RXFP2); type: cell-based; details: for % EFF vs. 100 nM INSL3 (c): normalized to 100 nM INSL3 cAMP response
T1 construct: expressed in transfected cells
T1 sequence (Q8WXD0 whole entry): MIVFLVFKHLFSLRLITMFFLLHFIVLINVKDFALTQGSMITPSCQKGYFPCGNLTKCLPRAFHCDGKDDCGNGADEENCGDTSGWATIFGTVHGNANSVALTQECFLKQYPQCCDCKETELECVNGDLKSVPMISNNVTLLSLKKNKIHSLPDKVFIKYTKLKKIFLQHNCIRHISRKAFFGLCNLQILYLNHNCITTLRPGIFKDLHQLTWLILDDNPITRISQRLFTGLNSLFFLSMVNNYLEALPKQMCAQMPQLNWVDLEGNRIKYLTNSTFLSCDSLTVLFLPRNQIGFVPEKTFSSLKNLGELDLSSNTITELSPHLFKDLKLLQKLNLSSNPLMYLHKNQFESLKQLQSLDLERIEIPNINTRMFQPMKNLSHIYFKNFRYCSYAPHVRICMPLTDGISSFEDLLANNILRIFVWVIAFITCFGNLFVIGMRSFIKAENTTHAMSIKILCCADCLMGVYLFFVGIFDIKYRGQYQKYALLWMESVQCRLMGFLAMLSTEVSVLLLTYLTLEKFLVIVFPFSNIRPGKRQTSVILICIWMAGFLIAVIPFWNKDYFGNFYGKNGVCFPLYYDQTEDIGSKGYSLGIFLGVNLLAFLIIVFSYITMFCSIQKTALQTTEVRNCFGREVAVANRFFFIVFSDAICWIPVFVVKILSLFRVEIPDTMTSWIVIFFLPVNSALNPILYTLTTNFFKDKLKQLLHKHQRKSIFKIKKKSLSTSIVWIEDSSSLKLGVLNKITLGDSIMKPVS
In short: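 HEK-RXFP2 cells in serum-free DMEM were treated with compound up to 25 μM for 1 h at 37°C, and cAMP was read by HTRF immunoassay. Condition (a): 20,000 cells/well, 200 μM IBMX, normalized to 1 nM INSL3. Condition (b): 10,000 cells/well, 1 nM INSL3. Condition (c): 7,500 cells/well, no IBMX, 100 nM INSL3.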

[1] = system: primary human calvarial osteoblasts (HCO); test: CellTiter-Glo cytotoxicity assay in HCO cells; type: cell-based; details: 24 h
Method: Cytotoxicity induced by the compounds in HEK293T cells and primary human calvarial osteoblasts (HCO) (ScienCell Research Laboratories, San Diego, CA) were tested using the […]-GLO™ Luminescent Cell Viability Assay (Promega, Madison, WI). This is a luminescence-based assay that determines viable cells by measuring cellular adenosine triphosphate (ATP) production. The luciferase enzyme requires ATP to catalyze the conversion of beetle luciferin to oxyluciferin and light. Thus, luciferase activity is proportional to ATP accumulation in the cells. For this assay, 96-well flat-bottom opaque plates seeded with HEK293T cells at 5,000 cells/well and HCO cells at 3,000 cells/well in 100 μL/well of growth medium (DMEM, 10% FBS, 1× Penicillin/Streptomycin). After incubating overnight at 37° C., 5% CO2 to allow attachment, cells were treated with 1 μL/well of compound (25-0.1 μM) or DMSO vehicle and incubated an additional 24 hours. Then cells were equilibrated for 30 minutes at room temperature and 100 μL/well of […]-GLO™ Reagent was added. Plates were placed on an orbital shaker for 2 minutes and incubated at room temperature for 10 minutes to stabilize the luminescent signal, which was read immediately after on a CLARIOstar plate reader (BMG Labtech, Germany). […] The HEK293T results represent the means±SEM of 3 technical replicates. The HCO results represent the means±SEM of 3 independent experiments.

primary HCO cells = test: OsteoImage mineralization assay in primary HCO cells; type: cell-based, human; details: 14 days
Method: The biological activity of the RXFP2 agonists was tested in primary HCO cells (ScienCell Research Laboratories, San Diego, CA) by measuring their ability to induce osteoblast mineralization. A fluorescent-based assay (OSTEOIMAGE™ Mineralization Assay, Lonza, Switzerland) was used that measures hydroxyapatite, which is the main mineral component of bone. For this assay, HCO cells were seeded in 0.1% gelatin-coated 96 well black-walled flat-bottom clear plates at 7,000 cells/well in 100 μL/well of growth medium (DMEM, 10% FBS, 1× Pen/Strep) and allowed to attach overnight at 37° C. and 5% CO2. The next day, growth medium was changed to 100 μL/well of mineralization medium (growth medium+10 mM β-glycerophosphate, 50 μg/ml ascorbic acid, 10 nM dexamethasone), along with the respective treatments. Cells were treated with 1 μL/well of compound (1, 3, or 5 μM) or vehicle (serum-free DMEM, 0.05% DMSO). Medium and treatments were replaced every 2-3 days and cells were incubated at 37° C. and 5% CO2 for 14 days. Hydroxyapatite deposits were evaluated using the OSTEOIMAGE™ Mineralization Assay (Lonza, Switzerland). At treatment day 14, cells were rested 30 minutes at room temperature for equilibration, washed with 200 μL/well PBS, and fixed in 100 μL/well 4% formaldehyde for 15 minutes. Cells were washed once with 200 μL/well assay wash buffer and 100 μL/well of assay staining reagent was added as per manufacturer's protocol. Cells were incubated at room temperature for 30 minutes, protected from light. After staining, cells were washed 3 times with 200 μL/well wash buffer and wells were filled with a final 200 μL/well wash buffer. Mineralization was quantified using a CLARIOstar plate reader (BMG Labtech, Germany) and representative images of the hydroxyapatite bone-like nodules were captured using a fluorescence microscope (Nikon Eclipse TS100 attached to an Olympus DP70 camera). […] Mineralization activity induced by compounds was normalized to DMSO vehicle as 100% mineralization. […]

[2] = condition (c): 7,500 cells/well, IBMX omitted
[3] = lower concentrations than 25 μM

SMILES	EC50 (RXFP2; [2]) [nM]	% EFF vs. 100 nM INSL3 (c) (RXFP2; [2])	cytotoxicity ([1]; 25 μM)	cytotoxicity [1, 3]	mineralization (hydroxyapatite) vs. DMSO vehicle (primary HCO cells; 5 μM)	activity in the HTRF cAMP screen (RXFP2; compared with Examples 187, 158, 153)	EC50 (RXFP2; condition (b): 10,000 cells/well, IBMX 200 μM) [nM]	% EFF vs. 1 nM INSL3 (b) (RXFP2; condition (b): 10,000 cells/well, IBMX 200 μM, normalized to 1 nM INSL3 cAMP response)	mineralization (hydroxyapatite) vs. DMSO vehicle (primary HCO cells; 1, 3, or 5 μM)
O=C1Nc2ccc(-c3cc(C(F)(F)F)cc(C(F)(F)F)c3)cc2C(=O)N2CCN(C(=O)COc3ccc(OC(F)(F)F)cc3I)C[C@@H]12 [Example 187, (S)-8-(3,5-bis(trifluoromethyl)phenyl)-2-(2-(2-iodo-4-(trifluoromethoxy)phenoxy)acetyl)-1,3,4,12a-tetrahydrobenzo[e]pyrazino[1,2-a][1,4]diazepine-6,12 (2H, 11H)-dione]	128 to 568	87.28-147.65%	minimal toxicity	not toxic	significant increase	–	–	–	–
O=C1Nc2ccc(-c3cccc(C(F)(F)F)c3)cc2C(=O)N2CCN(C(=O)COc3ccc(OC(F)(F)F)cc3Br)C[C@@H]12 [Example 123, (S)-2-(2-(2-bromo-4-(trifluoromethoxy)phenoxy)acetyl)-8-(3-(trifluoromethyl)phenyl)-1,3,4,12a-tetrahydrobenzo[e]pyrazino[1,2-a][1,4]diazepine-6,12 (2H, 11H)-dione]	46.2 to 73.7	38.35-49.8%	–	–	–	weaker activity	18 to 23.3	113.66-166.88%	does not seem to increase mineralization
O=C1Nc2ccc(-c3cc(C(F)(F)F)cc(C(F)(F)F)c3)cc2C(=O)N2CCN(C(=O)COc3ccc(OC(F)(F)F)cc3Br)C[C@@H]12 [Example 158, (S)-8-(3,5-Bis(trifluoromethyl)phenyl)-2-(2-(2-bromo-4-(trifluoromethoxy)phenoxy)acetyl)-1,3,4,12a-tetrahydrobenzo[e]pyrazino[1,2-a][1,4]diazepine-6,12 (2H, 11H)-dione]	167 to 1570	48.99-81.93%	minimal toxicity	not toxic	significant increase	–	–	–	–
